Measured values reported in patent US4935440A, “3-[ω-(3,5-Di-t-butyl-4-hydroxyphenyl)alkyl]pyrroles, and anti-inflammatory uses thereof” (Syntex (U.S.A.) Inc., priority 1989, dated 1990).
Values joined by “and” are separate entries in the source; they are usually repeats but may differ in a detail not shown here. Equal entries are not always repeated.

Key:
Female Hla:(SD) BR rats = test: Adjuvant-Induced Arthritis Assay "AI"; type: in vivo, rat; conditions: oral, day 18, vs control animals
Method: Anti-inflammatory activity is determined by the Adjuvant-Induced Arthritis ("AI") Assay, as is well accepted in the art. A modification of the assay described by Pearson, et al., supra., is performed as follows:
Female Hla:(SD) BR rats weighting 160-180 g are randomly distributed to treatment groups of 12 animals, and given food and water ad libitum. Test materials are prepared fresh weekly as suspensions in carboxymethyl cellulose. The test animals are orally dosed with the suspensions in volumes of 1 ml twice per day Monday through Friday, and with 2 ml once per day on Saturdays and Sundays. […] At time 0, rats are injected intradermally in the proximal quarter of the tail with 0.1 ml of a mineral oil suspension of heat-killed Mycobacterium butyricum (Difco) at a concentration of 10 mg/ml. On day 18 the intensity of swelling in the four paws and tail is estimated visually and scored (0-4 for paws, 0-3 for tail) such that the total maximum score, indicating intense swelling of all four paws and tail, is 19. The animals are then sacrificed; the hind paws of each animal are removed and weighed. The percent inhibition is calculated by comparing the weight increase of the hind paws of the test animals versus the control animals.
The "AI" assay, as described in Example 29, was performed using 3-(3,5-di-t-butyl-4-hydroxybenzoyl)pyrrole (prepared according to Example 2) as the test material.

mice = test: Arachidonic Acid-Induced Mouse Ear Edema Assay "AAI"; type: in vivo; conditions: topical in acetone
Method: Topical anti-inflammatory activity is determined by the Arachidonic Acid-Induced Mouse Ear Edema "AAI" Assay, as is well accepted in the art. A modification of the assay described by Young, et al., supra., is performed as follows:
The test materials are prepared as solutions in acetone and applied to the right ears of mice, in groups of eight (8), at hour 0. At hour 1, 2 mg of arachidonic acid in acetone solution is applied to the right ears of the mice to induce an inflammatory response. The left ears of these animals serves as negative controls. At hour 2 the mice are sacrificed; their ears are removed and 8 mm diameter full thickness plugs are cut from the tip of each ear. The plugs are weighed and the mean right and left plug weights are calculated for each group. The results are expressed as percent inhibition of ear plug weight increase relative to a positive control group receiving only acetone at hour 0.

[1] = as reported by Isomura, et al., Chem. Pharm. Bull., 32(1): 152-165 (1984); cited from earlier work

Compound | inhibition of hind paw weight increase (Female Hla:(SD) BR rats; daily dose 0.4 mg/kg of body weight) [%] | inhibition of hind paw weight increase (Female Hla:(SD) BR rats; daily dose 2.0 mg/kg of body weight) [%] | Inhibition (AAI) of ear plug weight increase (mice; dose 0.5 mg/ear) [%] | Inhibition (AAI) of ear plug weight increase (mice; dose 1.0 mg/ear) [%] | Inhibition (AAI) of ear plug weight increase (mice; dose 2.0 mg/ear) | anti-inflammatory activity [1]
CC(C)(C)c1cc(C(=O)c2cc[nH]c2)cc(C(C)(C)C)c1O [A, 3-(3,5-di-t-butyl-4-hydroxybenzoyl)pyrrole] | 54 | 70 | 49 | 62 | 67% and 69% | –
CC(C)(C)c1cc(C(=O)c2ccc[nH]2)cc(C(C)(C)C)c1O [B, 2-(3,5-di-t-butyl-4-hydroxybenzoyl)pyrrole, reference compound] | – | – | – | – | 22% | –
Cc1[nH]ccc1-c1cc(C(C)(C)C)c(O)c(C(C)(C)C)c1 [Formula VIII] | – | – | – | – | – | inactive
